From BindingDB's records for doi:10.1021/jm030424e (Isis Pharmaceuticals, 2004) come the findings set out here.

The structures appear in SMILES notation. A value given as a limit tells only on which side of the number the result lay.

The assay is described as follows: Inhibition HCV RNA replication.
The term EC50 denotes the midpoint of the concentration-response curve. On to `CO[C@@H]1[C@H](O)[C@@H](CO)O[C@H]1n1cnc2c(N)ncnc21`, for which the EC50 is greater than 50 µM.

The compound `C[C@@]1(O)[C@@H](CO)O[C@@H](n2cnc3c(N)ncnc32)[C@@H]1O` displayed a 50% effective concentration (EC50) greater than 50 µM.

Turning to `Nc1nc2c(ncn2[C@@H]2O[C@H](CO)[C@H](O)[C@H]2O)c(=O)[nH]1`, the concentration giving a half-maximal response (EC50) was greater than 50 µM.

Compound `C[C@]1(O)[C@@H](CO)O[C@@H](n2cnc3c(N)ncnc32)[C@@H]1O` registered a 50% effective concentration (EC50) greater than 50 µM.

`Nc1nc2c(ncn2[C@@H]2O[C@H](CO)[C@@H](O)[C@H]2F)c(=O)[nH]1` [2-Amino-9-((2R,3R,4R,5R)-3-fluoro-4-hydroxy-5-hydroxymethyl-tetrahydro-furan-2-yl)-1,9-dihydro-purin-6-one] returned an EC50 greater than 50 µM.

Compound `CO[C@@H]1[C@H](O)[C@@H](CO)O[C@H]1n1cnc2c(=O)[nH]c(N)nc21` [2-Amino-9-((2R,3R,4R,5R)-4-hydroxy-5-hydroxymethyl-3-methoxy-tetrahydro-furan-2-yl)-1,9-dihydro-purin-6-one] came in with a concentration for a half-maximal effect (EC50) greater than 50 µM.

In turn, `Nc1nc2c(ncn2[C@@H]2O[C@H](CO)C[C@H]2O)c(=O)[nH]1` [2-Amino-9-((2R,3R,5S)-3-hydroxy-5-hydroxymethyl-tetrahydro-furan-2-yl)-1,9-dihydro-purin-6-one] came in with a concentration giving a half-maximal response (EC50) of 50 µM.

`Nc1nc2c(ncn2[C@@H]2O[C@H](CO)[C@@H](F)[C@H]2O)c(=O)[nH]1` [2-Amino-9-((2R,3S,4S,5R)-4-fluoro-3-hydroxy-5-hydroxymethyl-tetrahydro-furan-2-yl)-1,9-dihydro-purin-6-one] displayed an EC50 greater than 50 µM.

The compound `C[C@@]1(O)[C@H](O)[C@@H](CO)O[C@H]1n1cnc2c(N)nc(N)nc21` [(2R,3R,4R,5R)-2-(2,6-diamino-9H-purin-9-yl)-5-(hydroxymethyl)-3-methyloxolane-3,4-diol] returned a half-maximal effective concentration (EC50) of 7 µM.

`C[C@@]1(O)[C@H](O)[C@@H](CO)O[C@H]1n1cnc2cnc(N)nc21` [(2R,3R,4R,5R)-2-(2-amino-9H-purin-9-yl)-5-(hydroxymethyl)-3-methyloxolane-3,4-diol] had an EC50 greater than 50 µM.

Regarding `CC[C@@]1(O)[C@H](O)[C@@H](CO)O[C@H]1n1cnc2c(N)ncnc21` [(2R,3R,4R,5R)-2-(6-amino-9H-purin-9-yl)-3-ethyl-5-(hydroxymethyl)oxolane-3,4-diol], the EC50 was greater than 50 µM.

On to `C[C@@]1(O)[C@H](O)[C@@H](CO)O[C@H]1n1cnc2c(N)ncnc21` [(2R,3R,4R,5R)-2-(6-amino-9H-purin-9-yl)-5-(hydroxymethyl)-3-methyl-tetrahydrofuran-3,4-diol], for which the EC50 is 0.3 µM.

On to `C[C@@]1(O)[C@H](O)[C@@H](CO)O[C@H]1n1cnc2c(=O)[nH]cnc21` [(2R,3R,4R,5R)-2-(6-hydroxy-9H-purin-9-yl)-5-(hydroxymethyl)-3-methyloxolane-3,4-diol], for which the EC50 is greater than 50 µM.

With `CO[C@]1(C)[C@H](O)[C@@H](CO)O[C@H]1n1cnc2c(N)ncnc21` [(2R,3R,4R,5R)-5-(6-amino-9H-purin-9-yl)-2-(hydroxymethyl)-4-methoxy-4-methyloxolan-3-ol], the 50% effective concentration (EC50) is greater than 50 µM.

`C[C@@]1(O)[C@H](O)[C@@H](CO)O[C@H]1n1cnc2cncnc21` [(2R,3R,4R,5R)-5-(hydroxymethyl)-3-methyl-2-(9H-purin-9-yl)oxolane-3,4-diol] had a concentration for a half-maximal effect (EC50) greater than 50 µM.

Compound `C[C@]1(O)[C@H](O)[C@@H](CO)O[C@H]1n1cnc2c(N)ncnc21` [(2R,3S,4R,5R)-2-(6-amino-9H-purin-9-yl)-5-(hydroxymethyl)-3-methyloxolane-3,4-diol] came in with a concentration giving a half-maximal response (EC50) greater than 50 µM.

Take `Nc1ncnc2c1ncn2[C@@H]1O[C@H](CO)[C@@H](O)[C@@H]1O` [adenine arabinoside]: the 50% effective concentration (EC50) was greater than 50 µM.
